According to paper PMC12389415, “Killer Peptide-Containing Polyelectrolytic Nanocomplexes to Fight Toxoplasma gondii Infection” (Pharmaceutics, 2025):
Where two headings read alike, the source gives them in different places. Where a SMILES comes first, the peptide text is derived from it.

Assays:
[1] = test system: intracellular tachyzoites of T. gondii; settings: in vitro; cited from earlier work
Text: From a parasitological point of view, the fact that the nanoparticles developed here are effective against T. gondii, also without KP, is very intriguing and represents a novel finding. In fact, to the best of our knowledge, no literature describes a parasiticidal role of hyaluronate; while some studies have investigated the parasiticidal activity of chitosan-based nanoparticles, this was limited to the extracellular form or fre ...

[2] = test system: T. gondii β-gal-RH (Type I) intracellular tachyzoites in HFFs; test: Toxo-β-gal assay, post-infection model (intracellular parasites); format: cell-based, Toxoplasma gondii; settings: dose-response, 48 h
Procedure: T. gondii β-gal-RH (Type I) is a genetically modified strain constitutively expressing β-galactosidase under the control of the promoter SAG1 (constitutive promoter). Susceptibility of T. gondii β-gal to the tested compounds was assessed by determining IC50 values based on β-galactosidase assay, as described by Păunescu et al. Briefly, HFFs (5 × 10^3/well) were seeded into 96-well plates, and once confluent, 200 µL of a suspension of parasites prepared in DMEM + 10% FBS at the concentration of 7.5 × 10^4/mL was added to each well resulting in 1.5 × 10^4 parasites per well.
Plates were incubated for 48 h 37 °C, 5% CO2, then cultures were washed once with 200 μL/well of PBS 1×. […] In total, 10 μL of 5 mM chlorophenol red-β-D-galactopyranoside (CPRG) was added to each well, and the reaction was monitored until saturation (usually reached in 30 min) by repeatedly measuring absorbance at 570 nm. The values obtained from the initial readings were subtracted from the respective final readings, and from these, the averages of each group were calculated. This was followed by calculation of the standard deviation and the calculation of percentage (normalized) absorbance, which was obtained from a ratio between the mean of the treatments and the mean of the negative control (DMEM 10% FBS), multiplied by 100. […]

[3] = Procedure: Before formulation, peptide solubility and gelation properties were evaluated by dispersing the powder in different solvents, namely ultrapure water, phosphate-buffered saline, ethanol, methanol, or isopropanol, to evaluate its solubility and gelation properties and select the more appropriate formulative approach by microfluidics.
The solubility of KP and the flowability of the resulting solution are critical elements for microfluidic processing, since viscous solutions cannot be used, as they alter laminar flow conditions or clog the chip’s channels. For this reason, common solvents were screened to select those providing the highest solubility, to prevent spontaneous precipitation of the peptide, without neglecting their acceptability from the toxicological point of view.

[4] = Stability of free KP and KP-NPs under stress conditions (60 °C, acid, alkali); settings: 2 h, Micro BCA
Procedure: Moreover, KP-NPs were exposed to harsh conditions, to assess the ability of the formulation to protect KP from environmental degradation. […] These three samples were exposed to high temperatures (60 °C) for 2 h, then particle size and KP content were evaluated as described above.
To further assess the stability of KP-NPs and their potential protective effect on KP, both free KP and KP-NPs were subjected to harsh stress conditions, namely high temperature (60 °C) and strong acidic or alkaline environment (0.1 M HCl or NaOH) for two hours. […] As for nanoparticles, particle size was checked (Table 3), and the amount of KP released quantified.

[5] = supplier data; ref Thermo Scientific; cited from earlier work
Text: Killer peptide ([…], MW: 998.2, isoelectric point: 8.97) was acquired from Thermo Scientific (Rockford, IL, USA). Sodium hyaluronate (Hyal, MW: 15–30 kDa) was obtained from Contipro (Praha, Czech Republic). Chitosan (Chito, MW: 66 kDa, degree of deacetylation: 96%) was from Primex (Siglufjordur, Iceland). Acetic acid was from Merck. Ultrapure (UP) water was obtained by inverse osmosis using an Arium Comfort® system by Sartorius (Gottingen, Germany). Solvents and reagents were from Avantor, VWR, unless otherwise specified. Resazurin and chlorophenol red-β-D-galactopyranoside (CPRG) were ...

[6] = test system: T. gondii free tachyzoites; test: Free tachyzoites exposure, parasite quantification by real-time PCR (B1 gene); format: cell-based, Toxoplasma gondii
Procedure: Additionally, the same experiment was performed in duplicate to extract DNA for subsequent quantification of the parasite using real-time PCR CFX96™ Biorad® (version 3.1) (without using coverslips in the wells). The protocol by Santoro et al., amplifying the target B1 gene using Taqman technology, was optimized by defining the appropriate annealing temperature and amplification cycles. A standard curve for quantification was generated using T. gondii RH-WT grown in HFF cells, to ensure consistency in the results. DNA was extracted with the commercial kit Invitrogen PureLink™ Genomic DNA Mini Kit (Thermo Fisher Scientific, Waltham, Massachusetts, USA) from infected cells (control/treatment) 48 h after seeding, and it was used for amplification of the B1 gene.
The resulting product was loaded onto an agarose gel, and the corresponding band was excised for DNA quantification (12.3 ng/µL). From this, the number of copies per µL (1.1 × 10^11) was calculated using Copy Number Calculator (accessed on 11 April 2025)), and a standard curve was generated via serial dilutions (starting from a concentration of 10^8 copies of DNA/µL down to 10^2 copies of DNA/µL). Each condition was tested in four wells; three independent experiments were conducted.

[7] = real-time PCR B1 gene, 48 h, KP 250 µg/mL or corresponding NPs

| Compound | IC50 [1] | Efficacy against intracellular T. gondii (in words) [2] | Sol-gel transition kinetics in water ([3]; KP 3.5 mg/mL, room temperature) | Sol-gel transition kinetics in water ([3]; KP 5 mg/mL) | Gelation in ethanol ([3]; after dissolution at 2 mg/mL) | Solubility in ethanol ([3]; at least up to) | Solubility in PBS ([3]; phosphate-buffered saline) | Solubility in acetone ([3]; powder dispersed in solvent) | Solubility in isopropanol ([3]; powder dispersed in solvent) | Solubility in methanol ([3]; verified up to) | Recovery of peptide after stress ([4]; acidic conditions (0.1 M HCl), 60 °C) | Peptide degraded after stress ([4]; alkaline conditions (0.1 M NaOH), 60 °C) | Recovery of peptide after stress ([4]; high temperature (60 °C)) | isoelectric point [5] | % Reduction Rate (parasite load) ([6]; compared to the control (DMEM), KP 250 µg/mL or corresponding NPs) | Log SQ [6, 7] | SQ Mean [6, 7] | Cq Mean ([6]; real-time PCR B1 gene, DNA extracted 48 h after seeding, KP 250 µg/mL or corresponding NPs) | FC ([6]; vs DMEM control) | ΔCq ([6]; vs DMEM control) |
| --- | --- | --- | --- | --- | --- | --- | --- | --- | --- | --- | --- | --- | --- | --- | --- | --- | --- | --- | --- | --- |
| spiramycin | 218 mg/L | – | – | – | – | – | – | – | – | – | – | – | – | – | – | – | – | – | – | – |
| CSCC[C@H](NC(=O)[C@@H](NC(=O)[C@@H](NC(=O)[C@H](CCCCN)NC(=O)[C@H](C)N)C(C)C)[C@@H](C)O)C(=O)N[C@H](C(=O)N[C@@H](CS)C(=O)N[C@@H](CO)C(=O)N[C@@H](C)C(=O)N[C@@H](CO)C(=O)O)[C@@H](C)O [KP] (H-AKVTMTCSAS-OH; N-terminus and C-terminus assumed) | – | did not exhibit any efficacy | over the course of two days | almost instantaneous | almost immediate transition, leading to the formation of a thick gel | ≥ 2 mg/mL | practically insoluble | practically insoluble | practically insoluble | ≥ 2 mg/mL | full recovery | approximately 20% | full recovery | 8.97 | 94.6% | 3.741 | 6041 | 28.17 | 0.072 | 3.80 |
